Measurements as given in ChEMBL document CHEMBL3228042, “Stereochemical aspects of the metabolism of 5-(4'-fluorophenyl)-5-phenylhydantoin in the rat” (J Med Chem, 1979).

Tests used:
Assay type in all cases: ADME, organism-based
Details in all cases: in vivo
[1] = Drug metabolism in ip dosed Wistar rat assessed as (R)-(-)-5-(4'-fluorphenyl)-5-(4'-hydroxyphenyl)hydantoin level in urine up to 96 hrs by TLC analysis
[2] = Drug metabolism in ip dosed Wistar rat assessed as 5-(3',4'-dihydroxyphenyl)-5-(4'-fluorophenyl)hydantoin level in urine up to 96 hrs by GC-MS analysis
[3] = Drug metabolism in ip dosed Wistar rat assessed as (R,S)-5-(3',4'-dimethoxyphenyl)-5-(4'-fluorophenyl)hydantoin level in urine up to 96 hrs by GC-MS analysis
[4] = Drug metabolism in ip dosed Wistar rat assessed as 3'-O-methyl derivative level in urine up to 96 hrs by GC-MS analysis
[5] = Drug metabolism in ip dosed Wistar rat assessed as […] level in urine up to 96 hrs by GC-MS analysis
[6] = Drug metabolism in ip dosed Wistar rat assessed as 5-(4'-fluorophenyl)-5-(4'-hydroxyphenyl)hydantoin level in urine up to 96 hrs by GC-MS analysis

Measured: Drug metabolism

O=C1NC(=O)C(c2ccc(O)cc2)(c2ccc(F)cc2)N1 (racemic)
metabolite_detected: [1]

O=C1[N-]C(=O)C(c2ccccc2)(c2ccc(F)cc2)N1.[Na+] (racemic)
metabolite_detected: [2] | [3] | [4] | [5] | [6]

O=C1NC(=O)C(c2ccccc2)(c2ccc(F)cc2)N1 (stereo unspecified)
metabolite_detected: [2] | [3] | [4] | [5] | [6]
